For test [1], the target named is T1, PDE4B2: full-length human PDE4B2 isozyme (Homo sapiens, UniProt Q07343).
T1 construct: made in house; host or cells: baculovirus infected insect cells (pFastBacHT)
Kind of test: PDE4 IC50 determination by Scintillation Proximity Assay (SPA), full-length PDE4B2. It counts as biochemical. The note with it: cell lysate, [3H]cAMP SPA. The method, boiled down:
(§1)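 Unpurified enzyme from cell lysates (PDE4B2 2.5 μl, PDE4D5 0.083 μl of 50% glycerol stock/ml) hydrolysing [3H]cAMP in 50 mM Tris pH 7.5, 8.3 mM MgCl, 1.7 mM EGTA, 0.01% BSA, 30 min at 30 °C. Stopped with yttrium silicate SPA beads in 18 mM ZnSO4; bead-bound [3H]AMP counted. IC50 by non-linear regression.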
(In general: In a scintillation proximity assay essentially only radioactivity close to the scintillant gives light.)

For test [2], the target named is T2, PDE4D5: full-length human PDE4D5 isozyme (Homo sapiens, UniProt Q08499).
T2 construct: made in house; host or cells: baculovirus infected insect cells (pFastBacHT)
T2 sequence (Q08499 with tags, fused parts or gaps isoform Q08499-6): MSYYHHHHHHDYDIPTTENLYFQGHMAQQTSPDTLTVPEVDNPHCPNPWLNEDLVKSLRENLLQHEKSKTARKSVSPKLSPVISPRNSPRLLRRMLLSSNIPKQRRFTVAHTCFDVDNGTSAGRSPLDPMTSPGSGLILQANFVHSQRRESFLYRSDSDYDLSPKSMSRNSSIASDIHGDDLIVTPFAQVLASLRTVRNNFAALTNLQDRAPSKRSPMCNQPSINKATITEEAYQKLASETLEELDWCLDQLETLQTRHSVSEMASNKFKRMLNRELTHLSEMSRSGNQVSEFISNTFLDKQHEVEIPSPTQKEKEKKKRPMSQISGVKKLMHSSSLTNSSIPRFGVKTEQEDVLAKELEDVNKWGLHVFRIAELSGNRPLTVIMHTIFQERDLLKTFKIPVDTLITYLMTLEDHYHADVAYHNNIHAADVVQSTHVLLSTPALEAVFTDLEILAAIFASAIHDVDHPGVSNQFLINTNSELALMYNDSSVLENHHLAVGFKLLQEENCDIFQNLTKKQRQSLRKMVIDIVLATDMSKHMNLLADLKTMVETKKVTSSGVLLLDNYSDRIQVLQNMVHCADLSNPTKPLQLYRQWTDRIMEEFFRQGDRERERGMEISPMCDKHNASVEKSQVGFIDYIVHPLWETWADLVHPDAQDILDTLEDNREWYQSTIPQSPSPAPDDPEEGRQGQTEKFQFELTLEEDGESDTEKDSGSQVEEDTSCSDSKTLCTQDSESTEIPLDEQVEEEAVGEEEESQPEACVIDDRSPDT
Kind of test: PDE4 IC50 determination by Scintillation Proximity Assay (SPA), full-length PDE4D5. It counts as biochemical. The following applies: cell lysate, [3H]cAMP SPA. The method, boiled down:
as §1

In test [3] the test system is TNF-α release from whole blood cultures stimulated with LPS. Kind of test: IC50 by TNF alpha production upon stimulation of whole blood cultures with LPS. The following applies: human whole blood (buffy coat) culture, 100 ng/ml LPS, 4 hours; read-out: h TNFα IC50. It counts as cell-based. The method, boiled down:
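Human buffy coat, diluted with 7 volumes of RPMI/2.5% heat-inactivated FBS, was preincubated with compound (8-point 1:3 series) for 1 h at 37 °C. It was then stimulated with 100 ng/ml LPS (final) for 4 h. Supernatant TNF-α was measured by sandwich ELISA at 450 nm, and IC50 was set between DMSO (0%) and PDE4-inhibitor (100%) controls.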

Test [4] deals with TNFα levels in serum of LPS-challenged rats. The test can be described thus: Rat inhibition studies: serum TNFα after iv LPS challenge. Format: in vivo. The following applies: 5 mg/kg po, LPS 0.1 mg/kg iv 2 h after dosing, percent decrease in serum TNFα versus vehicle, read-out: % inhibition r TNFα. The protocol:
All studies were done with male rats CD (SD) IGS BR (Crl) (Charles River, France), which were grouped in to 5 animal groups.
At the end of the acclimatization period, the non-fasted rats were weighed, individually identified on the tail with a permanent marker and administered by oral (po) or interperitoneal (ip) route with either vehicle, reference or test compound in a volume of 10 mL/kg adapted to the body weight. The animals were gathered in groups of 5 animals in a polystyrene labeled cage with sawdust covered floors. 2-hours after vehicle, reference or test substance administration, rats received an intravenous (iv) injection of 0.1 mg/kg LPS in a volume of 1 mL/kg of body weight. 2 h after LPS challenge (or as indicated in Tables 3B and 4B), blood samples were collected into tubes without anticoagulant by retro-orbital puncture under gas (isoflurane) anesthesia. Samples were allowed to clot at room temperature for 5 to 10 min then put on ice until there were prepared by centrifugation (6000×g for 3 min at 4° C.) and stored at −20° C. until use. TNFα levels were measured in serum samples in duplicate by ELISA technique according to the manufacturer's procedure (Rat TNFα kit Quantikine M (RTA00, R&D System, France)). Data are reported as percent decrease in observed TNFα levels versus TNFα levels observed for vehicle dosed animal groups.

T1 sequence (Q07343 with tags, fused parts or gaps isoform Q07343-2): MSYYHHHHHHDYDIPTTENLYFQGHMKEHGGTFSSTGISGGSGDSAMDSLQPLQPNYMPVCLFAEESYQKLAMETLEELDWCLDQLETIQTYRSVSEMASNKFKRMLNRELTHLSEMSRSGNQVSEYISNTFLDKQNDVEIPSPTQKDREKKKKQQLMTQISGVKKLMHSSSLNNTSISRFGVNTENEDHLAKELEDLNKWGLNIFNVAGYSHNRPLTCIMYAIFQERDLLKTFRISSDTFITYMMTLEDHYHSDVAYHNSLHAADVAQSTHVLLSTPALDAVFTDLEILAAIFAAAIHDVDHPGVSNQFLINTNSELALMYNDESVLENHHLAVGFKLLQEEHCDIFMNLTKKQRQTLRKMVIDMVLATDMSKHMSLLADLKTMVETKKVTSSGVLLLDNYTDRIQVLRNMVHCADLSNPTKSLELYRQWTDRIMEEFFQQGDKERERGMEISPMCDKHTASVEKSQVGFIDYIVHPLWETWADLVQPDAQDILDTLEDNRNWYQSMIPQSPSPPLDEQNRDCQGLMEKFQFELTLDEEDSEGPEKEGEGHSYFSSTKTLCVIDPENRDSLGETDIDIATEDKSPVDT

By IC50 is commonly meant the concentration needed to halve the response being measured. Take `CCOc1ccc2ccccc2c1C(=O)n1cc(-c2ccc(OC)c(OC)c2)c2cccnc21` [Compound 52, [3-(3,4-Dimethoxy-phenyl)-pyrrolo[2,3-b]pyridin-1-yl]-(2-ethoxy-naphthalen-1-yl)-methanone]: the results for the IC50 in test [1], in test [2] and in test [3] were less than 10 µM, less than 10 µM and no more than 10 µM, respectively. Further, in test [4], the inhibition in vivo at 5 mg/kg is no less than 20%.
Consider `CCOc1ccccc1C(=O)n1cc(-c2ccc(OC)c(OC)c2)c2cccnc21` [Compound 61, [3-(3,4-Dimethoxy-phenyl)-pyrrolo[2,3-b]pyridin-1-yl]-(2-ethoxy-phenyl)-methanone-amide], for which the IC50 was less than 10 µM in test [1], less than 10 µM in test [2] and no more than 10 µM in test [3]. The inhibition in vivo at 5 mg/kg in test [4] is no less than 20%.

These data come from patent US7605168B2 (Plexxikon, Inc., priority 2004, dated 2009).
